The source of these data is ChEMBL document CHEMBL2331307, “Modulation of cytochromes P450 with xanthone-based molecules: from aromatase to aldosterone synthase and steroid 11β-hydroxylase inhibition” (J Med Chem, 2013).

What is called IC50 is the concentration that inhibits the measured activity by half. A lower IC50 goes with inhibition by little substance.

For one assay, the target named is T1, Aromatase (Homo sapiens, UniProt P11511).
T1 sequence (P11511 whole entry): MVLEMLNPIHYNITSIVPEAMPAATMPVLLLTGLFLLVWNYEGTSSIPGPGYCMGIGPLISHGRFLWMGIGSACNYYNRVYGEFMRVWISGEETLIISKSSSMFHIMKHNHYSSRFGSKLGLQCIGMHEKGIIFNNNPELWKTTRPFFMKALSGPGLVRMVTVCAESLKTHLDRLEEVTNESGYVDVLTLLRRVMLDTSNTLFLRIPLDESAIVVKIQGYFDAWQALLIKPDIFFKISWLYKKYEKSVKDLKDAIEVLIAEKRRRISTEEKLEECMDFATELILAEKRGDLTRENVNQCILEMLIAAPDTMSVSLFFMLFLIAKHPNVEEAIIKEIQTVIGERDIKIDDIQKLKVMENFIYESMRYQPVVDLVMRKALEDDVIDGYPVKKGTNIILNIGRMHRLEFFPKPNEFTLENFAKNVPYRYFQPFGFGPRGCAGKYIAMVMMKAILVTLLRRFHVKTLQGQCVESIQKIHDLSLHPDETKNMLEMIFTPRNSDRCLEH

In assay [1] the target is T2, Cytochrome P450 11B1, mitochondrial (Homo sapiens, UniProt P15538).
T2 sequence (P15538 whole entry): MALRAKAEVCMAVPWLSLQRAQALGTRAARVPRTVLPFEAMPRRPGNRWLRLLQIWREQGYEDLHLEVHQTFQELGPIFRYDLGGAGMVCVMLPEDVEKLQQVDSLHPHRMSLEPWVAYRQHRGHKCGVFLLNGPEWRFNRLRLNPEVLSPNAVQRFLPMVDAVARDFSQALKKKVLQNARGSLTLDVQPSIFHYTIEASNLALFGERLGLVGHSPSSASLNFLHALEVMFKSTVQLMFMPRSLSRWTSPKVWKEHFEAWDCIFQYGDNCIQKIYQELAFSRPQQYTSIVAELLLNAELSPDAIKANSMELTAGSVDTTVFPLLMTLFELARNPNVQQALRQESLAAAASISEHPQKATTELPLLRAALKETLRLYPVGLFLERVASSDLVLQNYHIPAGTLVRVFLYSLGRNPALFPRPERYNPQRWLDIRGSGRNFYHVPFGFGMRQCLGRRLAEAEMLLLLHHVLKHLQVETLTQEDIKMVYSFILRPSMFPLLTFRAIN
Description: Inhibition of human CYP11B1 expressed in hamster V79MZh cells using [1,2-3H]-11-deoxycorticosterone as substrate

The target of assay [2] is T3, Steroid 17-alpha-hydroxylase/17,20 lyase (Homo sapiens, UniProt P05093).
T3 sequence (P05093 whole entry): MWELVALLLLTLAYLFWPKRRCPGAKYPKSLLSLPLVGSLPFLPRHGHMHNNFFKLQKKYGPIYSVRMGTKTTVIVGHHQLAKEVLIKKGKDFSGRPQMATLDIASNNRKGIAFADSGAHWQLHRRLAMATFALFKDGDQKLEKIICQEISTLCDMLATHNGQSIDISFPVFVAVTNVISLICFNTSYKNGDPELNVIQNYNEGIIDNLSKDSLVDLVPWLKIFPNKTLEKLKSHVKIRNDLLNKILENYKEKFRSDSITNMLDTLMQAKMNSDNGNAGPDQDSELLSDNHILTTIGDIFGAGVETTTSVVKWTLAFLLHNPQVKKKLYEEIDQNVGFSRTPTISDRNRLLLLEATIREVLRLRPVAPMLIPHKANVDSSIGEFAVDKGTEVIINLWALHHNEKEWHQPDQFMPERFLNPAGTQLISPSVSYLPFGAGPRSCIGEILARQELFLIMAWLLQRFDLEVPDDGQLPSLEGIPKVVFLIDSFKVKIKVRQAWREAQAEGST
Description: Inhibition of human CYP17 expressed in Escherichia coli co-expressing rat NADPH-P450-reductase using progesterone as substrate

The target in assay [3] is T4, Cytochrome P450 11B2, mitochondrial (Homo sapiens, UniProt P19099).
T4 sequence (P19099 whole entry): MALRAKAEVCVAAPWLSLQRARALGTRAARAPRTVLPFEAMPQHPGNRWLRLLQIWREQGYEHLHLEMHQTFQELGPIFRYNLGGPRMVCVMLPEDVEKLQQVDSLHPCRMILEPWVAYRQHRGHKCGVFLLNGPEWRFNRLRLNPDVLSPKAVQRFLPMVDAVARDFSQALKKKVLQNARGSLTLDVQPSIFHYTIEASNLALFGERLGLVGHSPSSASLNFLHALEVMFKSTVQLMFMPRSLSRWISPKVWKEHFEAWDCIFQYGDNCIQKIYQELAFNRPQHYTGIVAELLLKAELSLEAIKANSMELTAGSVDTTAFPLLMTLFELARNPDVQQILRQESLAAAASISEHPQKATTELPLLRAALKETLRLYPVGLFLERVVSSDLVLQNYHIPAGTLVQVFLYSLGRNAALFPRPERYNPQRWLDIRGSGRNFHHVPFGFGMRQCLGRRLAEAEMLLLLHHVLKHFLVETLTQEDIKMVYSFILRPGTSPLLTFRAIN
Description: Inhibition of human CYP11B2 expressed in hamster V79MZh cells using [1,2-3H]-11-deoxycorticosterone as substrate

Description for Aromatase: Inhibition of human placental CYP19 using [1beta-3H]androstenedione as substrate by 3H2O-method

Consider `Nc1ccc(Cn2ccnc2)c2c(=O)c3ccccc3oc12`, for which the IC50 came to 6390 nM against Aromatase, 785 nM in assay [1], 1740 nM in assay [2] and 676 nM in assay [3].
In the case of `CCOc1ccc(Cn2ccnc2)c2c(=O)c3ccccc3oc12`, the IC50 is 1970 nM against Aromatase, 25.4 nM in assay [1], > 5000 nM in assay [2] and 14.8 nM in assay [3].
Take `C[C@]12CC[C@H](O)CC1=CC[C@@H]1[C@@H]2CC[C@]2(C)C(c3cccnc3)=CC[C@@H]12` [ABIRATERONE]: the IC50 against Aromatase is > 5000 nM.
Take `O=c1c2ccccc2oc2c(Br)ccc(Cn3ccnc3)c12`: the figures for the IC50 in assay [1] and in assay [3] were 6.7 nM and 8.5 nM, respectively.
In the case of `O=c1c2ccccc2oc2c(O)ccc(Cn3ccnc3)c12`, the IC50 is 170 nM against Aromatase, 416 nM in assay [1], 493 nM in assay [2] and 235 nM in assay [3].
Regarding `O=c1c2ccccc2oc2c(OCC3CC3)ccc(Cn3ccnc3)c12`, the IC50 against Aromatase is 565 nM; in assay [1], 5.5 nM; in assay [2], > 5000 nM; in assay [3], 24.1 nM.
The matching figures for `CCC(C)Oc1ccc(Cn2ccnc2)c2c(=O)c3ccccc3oc12` (configuration not stated): 575 nM, 13.1 nM, > 5000 nM and 15.3 nM.
For `O=c1c2ccccc2oc2c([N+](=O)[O-])ccc(Cn3ccnc3)c12`, the IC50 in assay [1] was 22.3 nM; in assay [3] it was 31.1 nM.
For the compound `COc1ccc(Cn2ccnc2)c2c(=O)c3ccccc3oc12`, the IC50 was 1100 nM on Aromatase, 80.1 nM in assay [1], 610 nM in assay [2] and 41.1 nM in assay [3].
Turning to `CC(C)CCOc1ccc(Cn2ccnc2)c2c(=O)c3ccccc3oc12`, the half-inhibitory concentration (IC50) was 837 nM against Aromatase, 24.4 nM in assay [1], > 5000 nM in assay [2] and 25.2 nM in assay [3].
As for `O=c1c2ccccc2oc2cccc(Cn3ccnc3)c12`, the IC50 is 99.1 nM in assay [1] and 114 nM in assay [3].
As for `CC(C)Oc1ccc(Cn2ccnc2)c2c(=O)c3ccccc3oc12`, the IC50 on Aromatase turned out to be 400 nM; in assay [1] it was 92.5 nM; in assay [2] it was 1250 nM; in assay [3], 19.1 nM.
The like results for `O=c1c2ccccc2oc2c(OC3CCCC3)ccc(Cn3ccnc3)c12` were, in that order, 260 nM, 268 nM, > 5000 nM and 99.7 nM.
In the case of `O=c1c2ccccc2oc2c(-c3ccccc3)ccc(Cn3ccnc3)c12`, the 50% inhibitory concentration (IC50) is 300 nM at Aromatase, 156 nM in assay [1], 1890 nM in assay [2] and 104 nM in assay [3].
`N#Cc1ccc(Cn2ccnc2)c2c(=O)c3ccccc3oc12`: the IC50 in assay [1] worked out at 13.4 nM; in assay [3], 19.5 nM.
Consider `O=c1c2ccccc2oc2c(I)ccc(Cn3ccnc3)c12`, for which the IC50 against Aromatase turned out to be 460 nM; in assay [1] it was 19.2 nM; in assay [2], 1350 nM; in assay [3] it was 23.5 nM.
The matching figures for `O=c1c2ccccc2oc2c(Cl)ccc(Cn3ccnc3)c12`: 480 nM, 0.5 nM, 260 nM and 3 nM.
